Test results reported in patent US12202815B2, “Selective androgen receptor degrader (SARD) ligands and methods of use thereof” (priority 2018, dated 2025).
Values joined by “and” are separate entries in the source; they are usually repeats but may differ in a detail not shown here. Equal values may be shown once. “Also recorded” adds a separate entry of the source. Read-outs that look alike come from different tables or passages of the source.

Legend:
[1] = RLM metabolism half-life; assay type: in vitro ADME; details: rat liver microsomes
Method: (§1) The assay was done in a final volume of 0.5 ml in duplicates (n=2). […] After pre-incubation, reaction was started by addition of 1 mM NADPH (pre-incubated at 37° C.). Incubations were carried out in triplicate and at various time-points (0, 5, 10, 15, 30 and 60 minutes) 100 μl aliquots were removed and quenched with 100 μl of acetonitrile containing internal standard. Samples were vortex mixed and centrifuged at 4000 rpm for 10 minutes. The supernatants were transferred to 96 well plates and submitted for LC-MS/MS analysis. As control, sample incubations done in absence of NADPH were included. From % PCR (% Parent Compound Remaining), rate of compound disappearance is determined (slope) and in vitro CLint (μl/min/mg protein) was calculated.

[2] = assay type: in vitro ADME; details: human liver microsomes
Method: as §1

[3] = High dose Hershberger experiment, 7 days oral; assay type: in vivo, Sprague Dawley rat; details: for Body wt. on sac. day / Day 0 body wt.: individual animals
Method: Body weights were recorded on day 0 and day 7 (Table 4B). On day 7, animals were sacrificed and organs were observed.

[4] = tested on: >450 human kinases and mutant variants; experiment: KINOMEscan panel cross-reactivity profile; assay type: binding; details: panel of >460 kinases and mutants
Method: (§2) Screening “hits” are identified by measuring the amount of kinase captured in test versus control samples by using a quantitative, precise and ultra-sensitive qPCR method that detects the associated DNA label.
(§3) For most assays, kinase-tagged T7 phage strains were grown in parallel in 24-well blocks in an E. coli host derived from the BL21 strain. […] The lysates were centrifuged (6,000×g) and filtered (0.2 μm) to remove cell debris. The remaining kinases were produced in HEK-293 cells and subsequently tagged with DNA for qPCR detection. […] The liganded beads were blocked with excess biotin and washed with blocking buffer (SeaBlock (Pierce), 1% BSA, 0.05% Tween 20, 1 mM DTT) to remove unbound ligand and to reduce non-specific phage binding. […] Test compounds were prepared as 40× stocks in 100% DMSO and directly diluted into the assay. All reactions were performed in polypropylene 384-well plates in a final volume of 0.02 ml. […] The kinase concentration in the eluates was measured by qPCR.

[5] = biological target: T1, GSK3A (Homo sapiens, UniProt P49840); experiment: KINOMEscan competition binding assay; details: lower numbers indicate stronger hits
T1 construct: T7 phage fusion or DNA label for qPCR; purchased DiscoveRx
Method: as §2, §3

[6] = biological target: T2, MYLK (Homo sapiens, UniProt Q15746); experiment: KINOMEscan competition binding assay; details: lower numbers indicate stronger hits
T2 construct: T7 phage fusion or DNA label for qPCR; purchased DiscoveRx
Method: as §2, §3

[7] = tested on: >160 GPCR's; experiment: gpcrMAX panel, PathHunter beta-arrestin antagonist primary screen; assay type: cell-based
Method: The assays were performed utilizing the PathHunter beta-arrestin enzyme fragment complementation (EFC) technology.
The PathHunter® β-Arrestin assay monitors the activation of a GPCR in a homogenous, non-imaging assay format using a technology developed by DiscoveRx called Enzyme Fragment Complementation (EFC) with β-galactosidase (β-Gal) as the functional reporter. […] EA is fused to β-Arrestin and ED is fused to the GPCR of interest. When the GPCR is activated and β-Arrestin is recruited to the receptor, ED and EA complementation occurs, restoring β-Gal activity which is measured using chemiluminescent PathHunter® Detection Reagents.
PathHunter cell lines were expanded from freezer. Cells were seeded in a total volume of 20 μL into white walled, 384-well microplates and incubated at 37° C. for the appropriate time prior to testing.
Intermediate dilution of sample stocks was performed to generate 5× sample in assay buffer. […]
Microplates were read following signal generation with a PerkinElmer Envision™ instrument for chemiluminescent signal detection.
Compound activity was analyzed using CBIS data analysis suite (ChemInnovation, CA). For antagonist mode assays, percentage inhibition was calculated using the following formula: % Inhibition=100%×(1−(mean RLU of test sample−mean RLU of vehicle control)/(mean RLU of EC80 control−mean RLU of vehicle control) [where RLU is relative light unit]).

[8] = for Conc. 1065: individual rat serum
[9] = in vivo; details: male, Sprague Dawley, rat, 20 mpk
[10] = tested on: MDVR (enzalutamide-resistant VCaP prostate cancer cells); experiment: MDVR xenograft in SRG rats, 30 days oral dosing; details: rat, in vivo
Method: Male Sprague Dawley Rag2−/−; Il2rg−/− (SRG) rats were housed in group of three rats/cage. They were provided with food and water ad libitum and were maintained in a 12 hour light/dark cycle.
Cell inoculations were carried out in a Class II/A2 biosafety cabinet. The surgical space was cleaned with Clidox® and sterile drapes were placed on the surface. The animals were anesthetized using inhaled isoflurane. Prior to injection, the hind flank was shaved and cleaned with alcohol prep pads. Animals were placed back in their home cage and monitored until they recovered and sternal recumbency was observed.
Cell inoculation: All animals were inoculated with a total volume of 500 μL subcutaneously in the left hind flank. The inoculation suspension consisted of 250 μL of cell suspension mixed with 250 μL of Matrigel, diluted to 10 mg/mL working solution with DMEM, which was mixed on ice immediately by pipetting the cells into the Matrigel using a p1000 micropipette fitted with a sterile aerosol resistant tip prior to injection. The final concentration of Matrigel was 5 mg/mL. […] Each needle/syringe was used for only 1 animal.
SARDs were dissolved at 5-, 10-, or 15 mg/mL in vehicle in a biosafety cabinet using sterile reagents and consumables.
One-way ANOVA and Tukey's post-hoc test were used to compare the difference in percent change in body weight among treatment groups. […]

[11] = Pharmacokinetics in male Sprague Dawley rats (oral 7 days, iv Day 1); details: male, Sprague Dawley, rat, in vivo
Method: At initial dosing, the animals were 12 weeks of age. The animals were group housed (up to three animals/cage/group) in polycarbonate cages with hardwood chip bedding. […] Water was provided fresh daily, ad libitum. […] As necessary, the 12-hour dark cycle was interrupted to accommodate study procedures. […] Individual doses were calculated based on body weights recorded on Day 1 and Day 7 of dose administration. […] A single intravenous dose was administered via a tail vein and blood sample on Day 1.
Animals were weighed at the time of animal selection and on Day 1 and Day 7 of dose administration.
Centrifugation began within 1 hour of collection. Plasma was placed into 96-well tubes with barcode labels. Plasma was maintained on dry ice prior to storage at approximately −70° C. Drug concentrations were measured by established chromatography/mass spectrometry (LC-MS/MS) methods.

T1 sequence (P49840 whole entry, the tested form may be a part): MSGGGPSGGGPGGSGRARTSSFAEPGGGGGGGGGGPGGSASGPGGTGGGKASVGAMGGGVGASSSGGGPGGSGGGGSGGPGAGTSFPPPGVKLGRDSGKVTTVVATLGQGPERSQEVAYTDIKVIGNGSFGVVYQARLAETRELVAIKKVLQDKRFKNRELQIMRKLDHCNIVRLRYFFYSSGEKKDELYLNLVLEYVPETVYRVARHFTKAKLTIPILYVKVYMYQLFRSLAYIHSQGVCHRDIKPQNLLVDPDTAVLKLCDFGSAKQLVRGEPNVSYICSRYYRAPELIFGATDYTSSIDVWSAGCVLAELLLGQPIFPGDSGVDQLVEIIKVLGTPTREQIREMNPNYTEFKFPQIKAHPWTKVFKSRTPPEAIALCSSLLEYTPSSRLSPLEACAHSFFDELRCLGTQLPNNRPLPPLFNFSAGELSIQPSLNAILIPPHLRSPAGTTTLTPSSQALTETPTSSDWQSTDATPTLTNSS
T2 sequence (Q15746 whole entry, the tested form may be a part): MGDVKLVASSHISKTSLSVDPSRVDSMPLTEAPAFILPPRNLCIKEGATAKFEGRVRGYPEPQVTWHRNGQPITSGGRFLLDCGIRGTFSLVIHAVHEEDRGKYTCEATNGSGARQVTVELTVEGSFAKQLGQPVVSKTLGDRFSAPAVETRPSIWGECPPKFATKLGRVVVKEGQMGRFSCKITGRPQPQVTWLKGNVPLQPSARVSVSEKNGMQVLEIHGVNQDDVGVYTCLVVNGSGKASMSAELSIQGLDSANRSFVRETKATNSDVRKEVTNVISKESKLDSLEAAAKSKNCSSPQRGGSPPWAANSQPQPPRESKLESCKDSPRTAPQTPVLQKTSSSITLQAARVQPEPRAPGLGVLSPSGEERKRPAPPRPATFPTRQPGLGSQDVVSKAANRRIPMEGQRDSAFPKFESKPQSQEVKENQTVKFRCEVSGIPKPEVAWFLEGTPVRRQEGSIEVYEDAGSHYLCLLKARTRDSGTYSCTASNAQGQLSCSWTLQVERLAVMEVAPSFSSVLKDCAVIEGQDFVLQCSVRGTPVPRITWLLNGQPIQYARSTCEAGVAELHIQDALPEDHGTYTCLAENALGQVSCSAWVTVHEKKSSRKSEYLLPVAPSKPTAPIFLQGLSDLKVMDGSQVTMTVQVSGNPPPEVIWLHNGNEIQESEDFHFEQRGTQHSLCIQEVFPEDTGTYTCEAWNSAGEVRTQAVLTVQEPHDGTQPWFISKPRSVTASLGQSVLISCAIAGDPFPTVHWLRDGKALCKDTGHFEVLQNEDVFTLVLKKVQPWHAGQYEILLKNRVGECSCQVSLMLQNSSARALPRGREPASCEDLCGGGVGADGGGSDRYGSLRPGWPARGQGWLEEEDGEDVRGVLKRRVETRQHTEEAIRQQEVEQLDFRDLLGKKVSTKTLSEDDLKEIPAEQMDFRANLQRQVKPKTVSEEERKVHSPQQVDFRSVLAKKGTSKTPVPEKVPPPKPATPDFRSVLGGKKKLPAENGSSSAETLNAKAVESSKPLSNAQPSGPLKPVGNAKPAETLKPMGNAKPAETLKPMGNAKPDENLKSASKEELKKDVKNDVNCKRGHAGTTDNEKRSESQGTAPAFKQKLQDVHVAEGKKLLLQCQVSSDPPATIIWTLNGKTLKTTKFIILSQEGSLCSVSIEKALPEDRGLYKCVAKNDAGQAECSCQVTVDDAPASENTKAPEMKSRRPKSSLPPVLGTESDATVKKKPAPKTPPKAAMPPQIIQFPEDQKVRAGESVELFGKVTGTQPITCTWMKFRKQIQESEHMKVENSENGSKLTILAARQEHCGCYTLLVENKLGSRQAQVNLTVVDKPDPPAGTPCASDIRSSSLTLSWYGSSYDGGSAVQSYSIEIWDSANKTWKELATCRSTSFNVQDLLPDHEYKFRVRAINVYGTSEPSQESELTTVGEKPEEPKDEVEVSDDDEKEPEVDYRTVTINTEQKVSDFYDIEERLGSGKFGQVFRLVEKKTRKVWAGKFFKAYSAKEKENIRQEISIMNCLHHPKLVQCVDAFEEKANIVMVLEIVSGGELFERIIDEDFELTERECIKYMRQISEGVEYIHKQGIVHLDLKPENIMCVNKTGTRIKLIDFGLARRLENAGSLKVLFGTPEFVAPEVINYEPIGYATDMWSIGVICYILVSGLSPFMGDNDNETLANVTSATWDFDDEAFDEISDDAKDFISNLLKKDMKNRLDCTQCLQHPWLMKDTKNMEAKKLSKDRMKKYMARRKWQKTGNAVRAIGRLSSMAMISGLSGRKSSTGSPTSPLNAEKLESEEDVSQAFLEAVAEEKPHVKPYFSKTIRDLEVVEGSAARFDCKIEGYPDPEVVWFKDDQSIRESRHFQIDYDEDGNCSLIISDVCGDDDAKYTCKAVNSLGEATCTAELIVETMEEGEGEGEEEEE

C[C@](O)(Cn1cc(C#N)cn1)C(=O)Nc1cnc(C#N)c(C(F)(F)F)c1 [Compound 1065, (S)-3-(4-cyano-1H-pyrazol-1-yl)-N-(6-cyano-5-(trifluoromethyl)pyridin-3-yl)-2-hydroxy-2-methylpropanamide]
RLM Metebolism (H.L. min) [1]: 84 min
HLM Metabolism (H.L. min) [2]: STABLE
HLM % metabolized after 60 min ([2]; 60 min): 0%
gross pathology (in words) ([3]; 100 and 200 mpk, 7 days): no gross pathology
Body wt. on sac. day ([3]; 100 mpk oral 7 days): 475 g and 333 g and 292 g
Day 0 body wt. ([3]; 100 mpk oral 7 days): 404 g and 280 g and 245 g
Body wt. on sac. day ([3]; 200 mpk oral 7 days): 326 g and 313 g and 424 g
Day 0 body wt. ([3]; 200 mpk oral 7 days): 270 g (2×) and 440 g
number of kinases bound (<50% of Percent of Control) [4]: 2
Percent Control [5]: 6.4%
Percent Control [6]: 45%
GPCR cross-reactivity (in words) [7]: no GPCR was inhibited by 50%; also recorded: No GPCR was inhibited by >50%
Conc. 1065 ([8]; 1 mg/kg): 81.58 nM and 87.25 nM and 120.1244 nM and 134.5505 nM and 129.9323 nM
Conc. 1065 ([8]; 5 mg/kg): 967.3936 nM and 798.7984 nM and 630.4879 nM and 691.1901 nM and 485.4264 nM
Conc. 1065 ([8]; 10 mg/kg): 637.641 nM and 915.1312 nM and 824.8076 nM and 681.9936 nM and 795.917 nM
Conc. 1065 ([8]; 20 mg/kg): 1286.902 nM and 1298.179 nM and 1360.687 nM and 1397.834 nM and 1193.986 nM
Serum Conc. ([8]; Table 2, rats 20 mg/kg, 24-30 hours after last dose): 561 nM
Serum Conc. ([8]; Table 3, 20 mg/kg Hershberger): 561 nM
serum drug level (bioavailability) ([8]; rats dosed at 20 mg/kg): 561 nM
concentration at 30 h [9]: 561 nM
potency vs 1002 in inhibiting enzalutamide-resistant prostate cancer (in words) [10]: approximately two fold more potent than 1002
AUC0-24 ([11]; iv, 5 mg/kg): 31800 ng·h/mL
AUC(0-inf) ([11]; iv, 5 mg/kg): 40700 ng·h/mL
AUC(0-t) ([11]; iv, 5 mg/kg): 31800 ng·h/mL
C0 ([11]; iv, 5 mg/kg): 2510 ng/mL
Cmax ([11]; iv, 5 mg/kg): 2600 ng/mL
DN AUC0-24 ([11]; iv, 5 mg/kg): 6360
Tmax ([11]; iv, 5 mg/kg): 0.5 h
Vd ([11]; iv, 5 mg/kg): 1.86 L/kg
clearance ([11]; iv, 5 mg/kg): 2.05 mL/min/kg
half-life ([11]; iv, 5 mg/kg): 10.5 h
AUC(0-t) ([11]; po, 1 mg/kg): 7300 ng·h/mL
AUC0-24 ([11]; po, 1 mg/kg/day): 7300 ng·h/mL
AUC(0-t) ([11]; po, 1 mg/kg/day): 7300 ng·h/mL
Cmax ([11]; po, 1 mg/kg/day): 458 ng/mL
DN AUC0-24 ([11]; po, 1 mg/kg/day): 7300
Tmax ([11]; po, 1 mg/kg/day): 6 h
AUC(0-t) ([11]; po, 5 mg/kg): ~35000 ng·h/mL
AUC0-24 ([11]; po, 5 mg/kg/day): 34900 ng·h/mL
AUC(0-t) ([11]; po, 5 mg/kg/day): 34900 ng·h/mL
Cmax ([11]; po, 5 mg/kg/day): 2220 ng/mL
DN AUC0-24 ([11]; po, 5 mg/kg/day): 6980
Tmax ([11]; po, 5 mg/kg/day): 6 h
AUC0-24 ([11]; po, 10 mg/kg/day): 59500 ng·h/mL
AUC(0-t) ([11]; po, 10 mg/kg/day): 59500 ng·h/mL
Cmax ([11]; po, 10 mg/kg/day): 3550 ng/mL
DN AUC0-24 ([11]; po, 10 mg/kg/day): 5950
Tmax ([11]; po, 10 mg/kg/day): 6 h
AUC(0-t) ([11]; po, 20 mg/kg): 102000 ng·h/mL
AUC0-24 ([11]; po, 20 mg/kg/day): 102000 ng·h/mL
AUC(0-t) ([11]; po, 20 mg/kg/day): 102000 ng·h/mL
Cmax ([11]; po, 20 mg/kg/day): 5550 ng/mL
DN AUC0-24 ([11]; po, 20 mg/kg/day): 5120
Tmax ([11]; po, 20 mg/kg/day): 6 h
